This note sets out measurements from publication PMC7998250, “Temperate Zone Plant Natural Products—A Novel Resource for Activity against Tropical Parasitic Diseases” (Pharmaceuticals, 2021).

Series [1] relates to T. evansi bloodstream form. In words: Initial screen, T. evansi bloodstream form, Alamar Blue. The settings on record: Trypanosoma evansi, initial screen; compared to a normalised control with same concentration of DMSO solvent; read-out: mean % growth, T. evansi. Format: cell-based, Trypanosoma evansi. How it is done:
(§1) 634 compounds from the PhytoQuest Phytopure temperate plant natural product library were screened for growth inhibitory activity against L. mexicana axenic amastigotes, T. brucei bloodstream form, intraerythrocytic asexual P. falciparum (at 2 μM) and T. evansi bloodstream form parasites (at 1 μM). […] Our initial hits were defined as reducing growth of the parasite by ≥50%.
(§2) L. mexicana strain MNYC/BZ/62/M379 and L. donovani strain LdBOB (a clonal line from strain MHOM/SD/62/1S-CL2) were maintained in vitro in the procyclic promastigote stage. Parasites were cultivated at 26 °C in Schneider’s medium (Gibco) pH 7.0 containing 10% FBS, 100 U/mL penicillin (Lonza) and 100 μg/mL streptomycin (Lonza) as previously described. Differentiation into axenic amastigotes was performed as described previously. Briefly, axenic amastigotes were cultivated at 32 °C in Schneider’s medium pH 5.5 containing 10% FBS, 100 U/mL penicillin (Lonza) and 100 μg/mL streptomycin (Lonza). Bloodstream form T. brucei brucei strain Lister 427 and T. evansi strain Antat 3/3 [59] were maintained in vitro at 37 °C with 5% (v/v) CO2 in HMI-11 medium supplemented with 10% FBS, as described elsewhere. Intraerythrocytic cultures of P. falciparum Dd2^Luc strain [62] were maintained at 37 °C in a 1% O2:3% CO2:96% N2 atmosphere in RPMI-1640 containing 37.5 mM HEPES, 5 mM NaOH, 10 mM D-glucose, 2 mM L-glutamine, 100 μM hypoxanthine, […] gentamicin sulfate, 5% human serum and 5% albumax-II and 2% haematocrit erythrocytes. When required, cultures were synchronised to ring stages using the sorbitol lysis method. Preliminary cytotoxicity screening was assessed using HepG2 cells. These cells were maintained in vitro at 37 °C with 5% (v/v) CO2 in DMEM (Sigma) pH 7 supplemented with 10% FBS, 100 U/mL penicillin (Lonza) and 100 μg/mL streptomycin (Lonza), as previously described. The human monocyte cell line THP-1 [68] was maintained in vitro by culturing at 37 °C with 5% (v/v) CO2 in complete RPMI medium (Dutch modified RPMI-1640 (Gibco) containing 10% FBS and 2 mM L-glutamine (Gibco)). Differentiation of THP-1 cells into macrophages was performed by seeding 2.5 × 10^5 cells/mL in complete RPMI media, supplemented with 20 ng/mL phorbol 12-myristate 13-acetate (PMA), followed by incubation at 37 °C with 5% (v/v) CO2 for 24 h.
(§3) The library was provided as 634 non-polar compounds (1 mg/mL in DMSO). Initial screening was performed in a 96-well plate with 200 μL of parasite culture. The initial screen used each compound at a final concentration of 2 μM for L. mexicana axenic amastigotes, T. brucei and P. falciparum, and at 1 μM for T. evansi. L. mexicana axenic amastigotes were plated at 1 × 10^6 cells/mL, incubated for 72 h, and the Alamar Blue assay was used to assess parasite growth. Each compound was tested in triplicate, with two biological replicates (n = 6). T. brucei and T. evansi were plated at 1×10^5 cells/mL for 48 h, and the Alamar Blue assay was used to assess parasite growth. Each compound was tested in triplicate with two biological replicates (n = 6). Intraerythrocytic P. falciparum in the trophozoite stage were seeded at 0.5% parasitaemia and 2% haematocrit for 48 h, and the Malaria SYBR-Green I fluorescence assay was used to assess parasite growth. Each compound was tested in duplicate with two biological replicates (n = 4). Negative controls comprised an equivalent volume of DMSO (equivalent of 1% v/v) to normalise the growth data. Data points >100% growth and <0% growth were tabulated as 100% and 0%, respectively. Some compounds were not tested in all parasite lines as there was insufficient material remaining.
(In general: Alamar Blue is a resazurin reagent that responds to reducing activity.)

In series [2] the test system is T. brucei bloodstream form. In words: Initial screen, T. brucei bloodstream form, Alamar Blue. The settings on record: for activity at 2 µM: initial screen. The series is classed as cell-based, Trypanosoma brucei brucei. How it is done:
as §1, §2, §3

Series [3] has as its system L. mexicana axenic amastigotes. In words: Initial screen, L. mexicana axenic amastigotes, Alamar Blue. Format: cell-based, Leishmania mexicana. The settings on record: for initial hit against L. mexicana / inhibition of growth at 2 µM: 2 μM; for initial hit against L. mexicana: growth inhibited by ≥80%; for activity at 2 µM / inhibition of growth at 2 µM: Leishmania mexicana; for inhibition of growth at 2 µM: x = initial hit, read-out: initial hit L.m. How it is done:
(§4) 634 compounds from the PhytoQuest Phytopure temperate plant natural product library were screened for growth inhibitory activity against L. mexicana axenic amastigotes, T. brucei bloodstream form, intraerythrocytic asexual P. falciparum (at 2 μM) and T. evansi bloodstream form parasites (at 1 μM). […] Our initial hits were defined as reducing growth of the parasite by ≥50%. […]
as §3, with “The PhytoQuest Phytopure library is a commercially available collection of purified compounds isolated predominantly from temperate zone plants, with structures confirmed by NMR and mass spectrometry. The library” for “The library”

Series [4] in a line: Cytotoxicity CC50, differentiated THP-1, Alamar Blue. The series is classed as cell-based, human. The following applies: human, THP-1 cells differentiated into macrophages with PMA, differentiated THP-1, 48 h; read-out: THP1 CC50. The text has this:
The four lanosterone-like sterols derived from the Noble Fir Abies procera (700022, 700107, 700136) and the Grand Fir Abies grandis (700240) were the only initial compounds taken forward for L. mexicana due to their nanomolar activity and apparent low cytotoxicity (Figure 3a). […] Understanding the impact of the ring-opened lactone head group in this compound compared to the other three warrants further analysis in exploring their structure-activity relationships. These four sterols were also tested for growth inhibitory activity against L. donovani axenic amastigotes. […] As Leishmania spp. amastigotes typically reside with macrophages, further cytotoxicity assays with these sterols were performed against an activated monocyte cell line (THP-1) (Figure 4b). […]

Series [5] concerns L. mexicana axenic amastigotes. As to the kind of experiment: Concentration-response EC50, L. mexicana axenic amastigotes (WT). Format: cell-based, Leishmania mexicana. The settings on record: Leishmania mexicana, 72 h, read-out: L. mexicana EC50, axenic amastigotes, 72 h.
Method: EC50 values were determined by serial two-fold dilution of each compound in 96 well plates. Culture conditions and viability assays were as stated for the initial screen, with some exceptions. L. mexicana and L. donovani axenic amastigotes were seeded at 2 × 10^6 cell/s mL, T. brucei and T. evansi were seeded at 2 × 10^5 cells/mL. For cytotoxicity studies, HepG2 cells were seeded at 1 × 10^5 cells/mL, incubated for 48 h and viability was assessed using the Alamar Blue assay [66, 67]. […] Normalised growth and viability data (compared to untreated controls) were plotted against Log10 concentration to estimate EC50 in GraphPad (Prism v6).
Series [6] deals with P. falciparum Dd2Luc intraerythrocytic trophozoites. As to the kind of experiment: Initial screen, intraerythrocytic P. falciparum, Malaria SYBR-Green I fluorescence assay. Format: cell-based, Plasmodium falciparum. The following applies: for activity at 2 µM / inhibition of growth at 2 µM: Plasmodium falciparum, 48 h; for initial hit against P. falciparum: 2 μM, growth reduced by ≥50%; for inhibition of growth at 2 µM: read-out: initial hit P.f. How it is done: as §4
as §3, with “The PhytoQuest Phytopure library is a commercially available collection of purified compounds isolated predominantly from temperate zone plants, with structures confirmed by NMR and mass spectrometry. The library” for “The library”

In the next series the test system is P. falciparum Dd2Luc. In words: Concentration-response EC50, P. falciparum Dd2Luc. The following applies: Plasmodium falciparum, 48 h, read-out: P. falciparum Dd2Luc EC50, intraerythrocytic, 48 h. The series is classed as cell-based, Plasmodium falciparum.
A further series relates to P. falciparum 3D7. In words: Concentration-response EC50, P. falciparum 3D7. Format: cell-based. The following applies: Plasmodium falciparum. An excerpt: This is not surprising as the rate of kill is a result of the mechanism of cell death and, given their structural similarity, these three bisobolane sesquiterpene glycosides likely share the same target(s), albeit with some differences in affinity. The rate of kill, relatively, falls between that of atovaquone and dihydroartemisinin and is more similar to that of chloroquine.

The nature of the next series: in vitro. The following applies: human, pH 7, HepG2 CC50.
Text: Initial hits from the parasite panel screen were taken forward in log concentration versus normalised response assays to estimate the half maximal effective concentration (EC50) in hit species as well as the half maximal cytotoxic concentrations (CC50) in the human hepatoma cell line HepG2 as a preliminary test for selectivity. Using CC50/EC50 to define the selectivity index (SI), the selectivity for each compound in a defined species compared to a human cell line was estimated and compared to the EC50 (Figure 3).
as §2
EC50 values were determined by serial two-fold dilution of each compound in 96 well plates. Culture conditions and viability assays were as stated for the initial screen, with some exceptions. L. mexicana and L. donovani axenic amastigotes were seeded at 2 × 10^6 cell/s mL, T. brucei and T. evansi were seeded at 2 × 10^5 cells/mL. For cytotoxicity studies, HepG2 cells were seeded at 1 × 10^5 cells/mL, incubated for 48 h and viability was assessed using the Alamar Blue assay. Differentiated THP-1 cells were seeded at 5 × 10^4 cells/mL, incubated for 48 h, and viability was assessed by the Alamar Blue assay. Normalised growth and viability data (compared to untreated controls) were plotted against Log10 concentration to estimate EC50 in GraphPad (Prism v6). Bioluminescence relative rate of kill assays in asexual intraerythrocytic P. falciparum Dd2^Luc were carried out as described.

The test system of the next series is T. brucei. As to the kind of experiment: Concentration-response EC50, T. brucei. The following applies: Trypanosoma brucei, 48 h, bloodstream form, 48 h; read-out: T. brucei EC50. Format: cell-based, Trypanosoma brucei brucei.
Where [7] appears, read: Trypanosoma brucei, compared to a normalised control with same concentration of DMSO solvent, read-out: mean % growth, T. b. brucei.
Setting [8] is: read-out: mean % growth, L. mexicana, initial screen, compared to a normalised control with same concentration of DMSO solvent.
The mark [9] stands for this setting: read-out: mean % growth, P. falciparum, initial screen, compared to a normalised control with same concentration of DMSO solvent.

Like-named read-outs stand apart in the source and are kept apart here. Some results are limits rather than exact numbers.

As a reminder, the EC50 is the concentration needed to bring the measured effect to its halfway point. `CC#CC#CC(=O)c1cccc(OC)c1C(=O)OC` [Compound 701044]: the activity at 1 µM in series [1] is 90.3%. Further, the activity at 2 µM in series [2] (setting [7]) was 79.3%; in series [3] (setting [8]), -4.5%; in [6] (setting [9]), 92.6%. Moreover, in [3], the “initial hit against L. mexicana” value is listed as “initial hits”. The inhibition of growth at 2 µM in series [3] is above 80%. Besides, the CC50 at 48 h in [4] was determined as 2200 nM. Besides, the concentration giving a half-maximal response (EC50) in [5] came to 330 nM.
For the compound `COc1cc(/C=C/C(=O)OC2CC3(C[C@H]4C=C(C(=O)OC5OC(CO)C(O)C(OC(C)=O)C5OC5OC(C)C(O)C(OC(C)=O)C5O)CC[C@H]4C34CO4)OC[C@@H]2C)ccc1O` (stereo partly drawn) [Compound 700104], the activity at 2 µM in series [2] (Trypanosoma brucei, read-out: % growth T. b. brucei, mean % growth compared to a normalised control with same concentration of DMSO solvent) stood at 69.7%; in [3] (read-out: % growth L. mexicana, mean % growth compared to a normalised control with same concentration of DMSO solvent, initial screen), 146%; in series [6] (read-out: %growth P. falciparum, mean % growth compared to a normalised control with same concentration of DMSO solvent, initial screen), 31.6%. Further, the EC50 with P. falciparum Dd2Luc was 750 nM; in the series on P. falciparum 3D7 (3D7, read-out: P. falciparum 3D7 EC50) it was 350 nM. Also, the “initial hit against P. falciparum” value in series [6] was “initial hits”. In addition, in series [6], the inhibition of growth at 2 µM is above 50%.
For the compound `C=C(CC)C(=O)OC1CC(=C)C2CC(O)C(=C)C2C2OC(=O)C(=C)C12` (stereo not drawn) [Compound 701212], the activity at 1 µM in series [1] was found to be 86.5%. The activity at 2 µM in series [2] (setting [7]) is 77.1%; in [3] (setting [8]) it was 1.5%; in [6] (setting [9]), 84.7%. Moreover, the “initial hit against L. mexicana” value in [3] is recorded as “initial hits”. Further, the inhibition of growth at 2 µM in [3] is above 80%. For the same compound, the CC50 at 48 h in series [4] is 520 nM. For the same compound, the EC50 in [5] was 330 nM.
Take `C=C1C(OC(=O)/C=C/c2ccccc2)C(CC(C)=O)C(O)C2(C)CCC3=C(C)C(OC(C)=O)CC(CC12)C3(C)C` (stereo not drawn) [Compound 700535]: the activity at 1 µM in series [1] stood at 78.7%. Moreover, the activity at 2 µM in series [2] (setting [7]) was 99.4%; in [3] (setting [8]) it was 68.2%; in series [6] (setting [9]), 31%. For the same compound, the EC50 in the series with P. falciparum Dd2Luc worked out at 2300 nM; in the series on P. falciparum 3D7 (3D7, intraerythrocytic, read-out: P. falciparum 3D7 EC50), 3300 nM. Besides, the “initial hit against P. falciparum” value in series [6] is “initial hits”. In addition, in series [6], the inhibition of growth at 2 µM is above 50%.
In the case of `C=C1C(=O)OC2/C=C(/C)CC/C=C(/C)CC(OC(=O)/C(C)=C\CO)C12` (stereo not drawn) [Compound 700756], in series [1], the activity at 1 µM came out at 98.4%. Moreover, the results for the activity at 2 µM in series [2] (setting [7]), in [3] (setting [8]) and in series [6] (setting [9]) were 53.7%, 2.9% and 44%, respectively. For the same compound, in [3], the “initial hit against L. mexicana” value is “initial hits”. Besides, the values for the inhibition of growth at 2 µM in series [3] and in [6] were above 80% and above 50%, respectively. In addition, the CC50 at 48 h in series [4] came to 2800 nM. The EC50 in series [5] stood at 1000 nM.
For `CC#CC#CCc1cccc(O)c1` [Compound 701241], the “initial hit against T. brucei” value in [2] (2 μM, growth reduced by ≥50%) is listed as “initial hits”. Also, the results for the activity at 2 µM in series [2] (setting [7]), in series [3] (setting [8]) and in [6] (setting [9]) were -1.9%, 15% and 96.5%, respectively. Also, the inhibition of growth at 2 µM in series [2] (Trypanosoma brucei, 2 μM, x = initial hit, read-out: initial hit T.b) is above 50%; in [3], above 80%. Besides, the CC50 at 48 h in the series “in vitro” is 670 nM; in series [4] it was 270 nM. In series [3], the “initial hit against L. mexicana” value is given as “initial hits”. Further, the EC50 in series [5] was 330 nM; with T. brucei, 2200 nM.
